Experimental data as given in ChEMBL document CHEMBL5042524, “Discovery of Novel Histone Deacetylase 6 (HDAC6) Inhibitors with Enhanced Antitumor Immunity of Anti-PD-L1 Immunotherapy in Melanoma” (J Med Chem, 2022).
The source made the active and inactive calls. No cut-off for these calls is given here.

Columns and labels:
B16-F10 [1] = test: Effect on acetyl-SMC3 expression level in mouse B16-F10 cells at 1 to 4 uM incubated for 6 hrs by Western blot analysis; type: functional, cell-based; conditions: dose 1-4 µM
Jurkat [2] = test: Induction of apoptosis in human Jurkat T cells assessed as increase in Bax protein expression at 0.2 to 2 uM measured after 6 hrs by Western blot analysis; type: functional, cell-based; conditions: dose 0.2-2 µM
Histone deacetylase 1 = Histone deacetylase 1 (Homo sapiens, UniProt Q13547); test: Inhibition of recombinant human HDAC1 expressed in baculovirus expression system using Ac-Leu-Gly-Lys (Ac)-AMC as substrate preincubated for 5 mins followed by substrate addition and measured after 30 mins by fluorescence microtiter plate reader assay
Sequence of Histone deacetylase 1 (Q13547 whole entry): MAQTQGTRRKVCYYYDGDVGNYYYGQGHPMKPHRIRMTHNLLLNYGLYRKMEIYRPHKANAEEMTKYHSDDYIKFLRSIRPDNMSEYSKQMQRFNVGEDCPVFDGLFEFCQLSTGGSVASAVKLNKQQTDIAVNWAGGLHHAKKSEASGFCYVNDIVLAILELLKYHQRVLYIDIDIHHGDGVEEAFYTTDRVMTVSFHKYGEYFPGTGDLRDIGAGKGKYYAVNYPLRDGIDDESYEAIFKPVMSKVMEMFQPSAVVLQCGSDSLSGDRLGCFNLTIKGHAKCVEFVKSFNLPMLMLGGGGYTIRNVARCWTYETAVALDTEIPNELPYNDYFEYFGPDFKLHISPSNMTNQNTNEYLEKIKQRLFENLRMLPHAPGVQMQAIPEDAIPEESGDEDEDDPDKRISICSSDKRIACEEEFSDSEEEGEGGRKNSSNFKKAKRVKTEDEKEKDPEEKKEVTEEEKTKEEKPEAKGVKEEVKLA

MCF7 = test: cells; type: functional, cell-based; conditions: Homo sapiens, MCF7, 48 h
Description: Antiproliferative activity against human MCF7 cells assessed as inhibition of cell proliferation measured after 48 hrs by MTT assay

B16-F10 [3] = test: Induction of apoptosis in mouse B16-F10 cells assessed as increase in apoptotic cells at 0.5 uM incubated for 48 hrs by Annexin V-FITC/PI staining based flow cytometry analysis relative to control; type: functional
B16-F10 [4] = test: Effect on acetyl-H3 expression level in mouse B16-F10 cells at 1 to 8 uM incubated for 6 hrs by Western blot analysis; type: functional, cell-based; conditions: dose 1-8 µM
B16-F10 [5] = test: Induction of apoptosis in mouse B16-F10 cells assessed as increase in apoptotic cells at 0.1 uM incubated for 48 hrs by Annexin V-FITC/PI staining based flow cytometry analysis relative to control; type: functional
[6] = Antiproliferative activity against human YCC-11 cells assessed as cell growth inhibition; type: functional, cell-based
Jurkat [7] = test: Upregulation of alpha-tubulin expression in human Jurkat T cells at 0.1 to 2 uM incubated for 6 hrs by Western blot analysis; type: functional, cell-based; conditions: dose 0.1-2 µM
Jurkat [8] = test: Effect on acetyl-SMC3 expression level in human Jurkat T cells at 0.1 to 0.4 uM incubated for 6 hrs by Western blot analysis; type: functional, cell-based; conditions: dose 0.1-0.4 µM
B16-F10 [9] = test: Upregulation of acetylated alpha-tubulin expression in mouse B16-F10 cells incubated for 6 hrs by Western blot analysis; type: functional, cell-based; conditions: dose 0.1-2 µM
B16-F10 [10] = test: Effect on acetyl-SMC3 expression level in mouse B16-F10 cells at 1 to 8 uM incubated for 6 hrs by Western blot analysis; type: functional, cell-based; conditions: dose 1-8 µM
B16-F10 [11] = test: Upregulation of alpha-tubulin expression in mouse B16-F10 cells at 0.1 to 2 uM incubated for 6 hrs by Western blot analysis; type: functional, cell-based; conditions: dose 0.1-2 µM
B16-F10 [12] = test: Effect on acetyl-H3 expression level in mouse B16-F10 cells at 1 to 4 uM incubated for 6 hrs by Western blot analysis; type: functional, cell-based; conditions: dose 1-4 µM
Jurkat [13] = test: Effect on acetyl-H3 expression level in human Jurkat T cells at 0.1 to 0.8 uM incubated for 6 hrs by Western blot analysis; type: functional, cell-based; conditions: dose 0.1-0.8 µM
Jurkat [14] = test: Induction of apoptosis in human Jurkat cells assessed as upregulation of Ku70 expression at 0.2 to 2 uM measured after 24 hrs by Western blot analysis; type: functional, cell-based; conditions: dose 0.2-2 µM
[15] = target: T1, Protein deacetylase HDAC6 (Homo sapiens, UniProt Q9UBN7); test: Inhibition of recombinant human N-terminal GST tagged HDAC6 expressed in baculovirus infected Sf9 insect cells using Ac-Leu-Gly-Lys (Ac)-AMC as substrate preincubated for 5 mins followed by substrate addition and measured after 30 mins by fluorescence microtiter plate reader assay
T1 sequence (Q9UBN7 whole entry): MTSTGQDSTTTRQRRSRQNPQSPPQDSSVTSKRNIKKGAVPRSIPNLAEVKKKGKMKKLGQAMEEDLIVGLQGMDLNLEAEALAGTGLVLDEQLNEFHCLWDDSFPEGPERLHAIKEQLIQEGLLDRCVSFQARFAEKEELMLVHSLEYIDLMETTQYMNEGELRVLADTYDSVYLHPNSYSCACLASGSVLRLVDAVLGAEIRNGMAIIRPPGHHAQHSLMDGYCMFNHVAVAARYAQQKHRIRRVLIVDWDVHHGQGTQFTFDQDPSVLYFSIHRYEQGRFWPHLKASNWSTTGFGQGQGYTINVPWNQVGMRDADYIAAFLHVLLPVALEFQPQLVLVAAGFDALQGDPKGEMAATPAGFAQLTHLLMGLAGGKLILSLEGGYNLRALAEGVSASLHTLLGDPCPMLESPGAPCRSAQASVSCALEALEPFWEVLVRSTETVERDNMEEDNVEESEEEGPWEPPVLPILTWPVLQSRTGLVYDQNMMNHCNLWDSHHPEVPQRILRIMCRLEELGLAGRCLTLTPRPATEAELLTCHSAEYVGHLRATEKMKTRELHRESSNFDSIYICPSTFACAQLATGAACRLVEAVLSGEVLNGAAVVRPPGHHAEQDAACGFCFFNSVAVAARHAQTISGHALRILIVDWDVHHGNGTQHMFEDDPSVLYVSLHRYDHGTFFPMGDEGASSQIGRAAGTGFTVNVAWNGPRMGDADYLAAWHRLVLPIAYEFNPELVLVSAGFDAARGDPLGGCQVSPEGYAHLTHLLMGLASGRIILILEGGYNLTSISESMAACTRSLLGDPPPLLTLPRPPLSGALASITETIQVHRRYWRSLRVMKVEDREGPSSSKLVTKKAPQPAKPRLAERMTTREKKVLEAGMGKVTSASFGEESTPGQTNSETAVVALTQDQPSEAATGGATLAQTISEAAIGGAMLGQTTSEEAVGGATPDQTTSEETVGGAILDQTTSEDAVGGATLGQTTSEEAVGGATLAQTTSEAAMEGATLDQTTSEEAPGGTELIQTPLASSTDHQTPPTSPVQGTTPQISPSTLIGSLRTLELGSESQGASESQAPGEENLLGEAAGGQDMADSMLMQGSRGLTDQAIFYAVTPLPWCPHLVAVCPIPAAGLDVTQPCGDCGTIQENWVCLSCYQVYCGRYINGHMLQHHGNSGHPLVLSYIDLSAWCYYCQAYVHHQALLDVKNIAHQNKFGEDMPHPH

B16-F10 [16] = test: Induction of apoptosis in mouse B16-F10 cells assessed as increase in apoptotic cells at 1 uM incubated for 48 hrs by Annexin V-FITC/PI staining based flow cytometry analysis relative to control; type: functional
[17] = Antiproliferative activity against human YCC3/7 cells assessed as cell growth inhibition; type: functional, cell-based
Histone deacetylase = test: Inhibition of HDAC in human HeLa nuclear extracts using fluorometric substrate incubated for 30 mins by fluorescence plate reader analysis; type: cell-based
Jurkat [18] = test: Induction of apoptosis in human Jurkat T cells assessed as upregulation of acetylated Ku70 expression measured after 6 hrs by Western blot analysis; type: functional, cell-based; conditions: dose 0.2-2 µM
Histone deacetylase 3 = Histone deacetylase 3 (Homo sapiens, UniProt O15379); test: Inhibition of recombinant human His-tagged HDAC3 expressed in baculovirus insect cells using Ac-Leu-Gly-Lys (Ac)-AMC as substrate preincubated for 5 mins followed by substrate addition and measured after 30 mins by fluorescence microtiter plate reader assay
Sequence of Histone deacetylase 3 (O15379 whole entry): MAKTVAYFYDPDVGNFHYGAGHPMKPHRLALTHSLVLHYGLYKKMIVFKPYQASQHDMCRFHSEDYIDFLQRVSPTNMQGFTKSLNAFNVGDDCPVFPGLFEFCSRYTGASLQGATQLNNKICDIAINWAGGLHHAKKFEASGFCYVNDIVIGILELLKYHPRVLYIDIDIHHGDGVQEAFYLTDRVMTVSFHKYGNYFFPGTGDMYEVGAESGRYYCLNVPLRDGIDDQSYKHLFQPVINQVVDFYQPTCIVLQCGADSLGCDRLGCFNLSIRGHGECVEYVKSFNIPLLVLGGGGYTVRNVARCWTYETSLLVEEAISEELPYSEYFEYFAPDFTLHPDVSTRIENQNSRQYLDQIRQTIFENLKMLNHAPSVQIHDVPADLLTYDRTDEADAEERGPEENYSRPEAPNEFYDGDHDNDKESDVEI

Jurkat [19] = test: Induction of apoptosis in human Jurkat T cells assessed as downregulation of Bcl-2 expression at 0.2 to 2 uM incubated for 6 hrs by Western blot analysis; type: functional, cell-based; conditions: dose 0.2-2 µM
[20] = Cytotoxicity against human Jurkat cells assessed as reduction in cell viability incubated for 72 hrs by CCK-8 assay

Row | IC50 (Histone deacetylase 1) [µM] | IC50 (MCF7) [µM] | IC50 [15] [µM] | IC50 (Histone deacetylase) [µM] | Structure (SMILES) | Activity (B16-F10 [1]) | Activity (Jurkat [2]) | Activity (B16-F10 [3]) [%] | Activity (B16-F10 [4]) | Activity (B16-F10 [5]) [%] | IC50 [6] [µM] | Activity (Jurkat [7]) | Activity (Jurkat [8]) | Activity (B16-F10 [9]) | Activity (B16-F10 [10]) | Activity (B16-F10 [11]) | Activity (B16-F10 [12]) | Activity (Jurkat [13]) | Activity (Jurkat [14]) | Activity (B16-F10 [16]) [%] | IC50 [17] [µM] | also measured
1 | 4.66 | 2.68 | 0.048 | 0.08 | COc1ccc(-c2ncc(C(=O)NCCCCCCC(=O)NO)[nH]2)c(OC)c1 | Active | Active | 38.71 | Active | 16.58 | 1.28 | inactive | Active | Dose-Dependent Effect | Active | inactive | Active | Active | inactive | 57.73 | 1.52 | Activity (Jurkat [18]): Dose-Dependent Effect; IC50 (Histone deacetylase 3): 7.12 µM; Activity (Jurkat [19]): Active; IC50 at 72 h [20]: 0.23 µM
2 | 3.19 | 0.91 | 0.031 | 0.04 | COc1ccc(-c2ncc(C(=O)NCCCCCCC(=O)NO)s2)c(OC)c1 | Active | Active | 78.98 | Active | 57.09 | 0.92 | inactive | Active | Dose-Dependent Effect | Active | inactive | Active | Active | inactive | 87.91 | 1.08 | Activity (Jurkat [18]): Dose-Dependent Effect; IC50 (Histone deacetylase 3): 10.4 µM; Activity (Jurkat [19]): Active; IC50 at 72 h [20]: 0.16 µM
